The record followed here is EPA's ToxValDB 9.5 (doi:10.2903/j.efsa.2010.1931).

Each structure is given as a SMILES string. Values after ≈ are worked out from the molar mass of the structure shown.

The test system of one data set is Apis mellifera. The settings on record: acute; duration: 48 hours; oral; unspecified; mortality.
The subject of another data set is Oryctolagus sp. The note with it: chronic; body weight.
Another data set has as its system Daphnia magna. The settings on record: chronic/long-term; duration: 21 days; reproduction.
Another data set has as its system Oncorhynchus mykiss. The note with it: mortality.
Another data set relates to Anas platyrhynchos. The note with it: acute; oral; unspecified; mortality.
The next data set deals with Colinus virginianus. The note with it: for LD50: acute, oral, mortality.
Another data set concerns Typhlodromus pyri. In words: LR50; higher = less toxic. The note with it: acute; duration: 7 days; mortality.

Broadly, the NOAEL is the highest dose or exposure tested at which no adverse effect was seen. As for `COCCOc1cccc2c1c(=O)c(C(=O)O)nn2-c1ccc(Cl)cc1`, the LD50 in the data set on Rattus norvegicus (acute, oral, mortality) was more than 5000 mg/kg-day; with Apis mellifera, more than 100 µg/piece; with Anas platyrhynchos it was more than 1440 mg/kg-day; with Colinus virginianus (diet) it was more than 642 mg/kg-day; in the data set with Colinus virginianus it was more than 1440 mg/kg-day. Moreover, the no-observed-adverse-effect level (NOAEL) in the data set with Rattus norvegicus (chronic, duration: 2 years, mortality) stood at 9.1 mg/kg-day; in the data set on Rattus norvegicus (subchronic, duration: 90 days, oral, histopathology: nonneoplastic), 16.5 mg/kg-day. Besides, the values for the NOEL in the data set with Oryctolagus sp. and in the data set with Colinus virginianus (reproduction developmental) were 125 mg/kg-day and 119 mg/kg-day, respectively. Further, the NOEC amounted to 7.03 mg/L with Daphnia magna; 100 mg/L in the data set on Oncorhynchus mykiss (chronic/long-term, duration: 28 days); 20 mg/kg in the data set with Tagia sp. (chronic/long-term, reproduction). Besides, the LC50 with Oncorhynchus mykiss (acute, duration: 96 hours) came to 570 µg/mL (≈ 1520 µM); with Tagia sp. (acute, duration: 14 days, mortality) it was 20 mg/kg. For the same compound, in the data set with Typhlodromus pyri, the LR50 was determined as 1460 g/ha.
